Test: Analysis of radioactivity in the formulations: trans/cis isomer content
Format: physicochemical
Details: 14C radioactivity in formulation extracts
From the text: The different degree of isomerization could be explained by the extent of light exposure during the preparation of the cream and/or during the extraction procedure in the course of the series of experiments.

Substance: [phenyl-^14C]-resveratrol [^14C-Resveratrol stock solution]
- Resveratrol cis isomer: 0%
- Resveratrol trans-isomer: 100%

From patent US20130315848A1, “COSMETIC COMPOSITION FOR SKIN WHITENING COMPRISING RESVERATROL” (DSM IP ASSETS B.V., priority 2010, published 2013)
